Measurements reported in patent US20050289668A1, “Plants with increased levels of one or more amino acids” (priority 2003, published 2005).
Substitutions are numbered along the chain they refer to.

Key:
[1] = biological target: T1, E. coli threonine deaminase (ilvA), wild type, SEQ ID NO: 2 (Escherichia coli, UniProt P04968, A120R/A140R/G195C/G334V/V121L); test: Threonine deaminase steady state kinetics, E. coli wild type; type: biochemical
T1 construct: made in house; host or cells: E. coli (crude extract)
Method: (§1) Before conducting further transformation experiments using the isolated ilvA alleles in transgenic plants, each allele was over-expressed in E. coli to determine its kinetic parameters. Kinetics data on threonine deaminases containing various mutations, and a comparison to data available for threonine deaminases from Arabidopsis, are provided in Table 4. The E. coli ilvA481 variants were subcloned into pSE380 (Invitrogen, Carlsbad, Calif.) and expression was induced with 0.2 mM IPTG at 37° C. for 3 hours. Expression of the E. coli alleles was high and fairly consistent as visualized by SDS-PAGE.
(§2) The effects of amino acid substitutions at Leu481 in ilvA were assessed by steady state kinetic analysis in the presence and absence of L-isoleucine. Threonine deaminase polypeptides for use in in vitro kinetics studies were extracted from E. coli cells in assay buffer containing 50 mM potassium phosphate (pH7.5), 1 mM dithiothreitol (DTT), and 0.5 mM ethylenediamine-tetraacetate. A continuous assay method was employed to monitor the formation of α-ketobutyrate directly at 230 nm (ε230 (pH7.5)=540 M^−1cm^−1 whereas threonine absorption was negligible (˜1%)). […] The kinetic parameters were determined by fitting the data points to the equations using GraFit 4.0 software (Erithacus Software, Surrey, UK). […]

[2] = biological target: T2, E. coli threonine deaminase (ilvA) variant L481E, SEQ ID NO: 7 (Escherichia coli, UniProt P04968, A120R/A140R/G195C/G334V/L481E/V121L); test: Threonine deaminase steady state kinetics, L481E; type: biochemical
T2 construct: made in house; host or cells: E. coli (pSE380, crude extract)
Method: as §1, §2

[3] = biological target: T3, E. coli threonine deaminase (ilvA) variant L481I, SEQ ID NO: 10 (Escherichia coli, UniProt P04968, A120R/A140R/G195C/G334V/L481I/V121L); test: Threonine deaminase steady state kinetics, L481I; type: biochemical
T3 construct: made in house; host or cells: E. coli (pSE380, crude extract)
T3 sequence (P04968 1-514 A120R/V121L/A140R/G195C/G334V/L481I): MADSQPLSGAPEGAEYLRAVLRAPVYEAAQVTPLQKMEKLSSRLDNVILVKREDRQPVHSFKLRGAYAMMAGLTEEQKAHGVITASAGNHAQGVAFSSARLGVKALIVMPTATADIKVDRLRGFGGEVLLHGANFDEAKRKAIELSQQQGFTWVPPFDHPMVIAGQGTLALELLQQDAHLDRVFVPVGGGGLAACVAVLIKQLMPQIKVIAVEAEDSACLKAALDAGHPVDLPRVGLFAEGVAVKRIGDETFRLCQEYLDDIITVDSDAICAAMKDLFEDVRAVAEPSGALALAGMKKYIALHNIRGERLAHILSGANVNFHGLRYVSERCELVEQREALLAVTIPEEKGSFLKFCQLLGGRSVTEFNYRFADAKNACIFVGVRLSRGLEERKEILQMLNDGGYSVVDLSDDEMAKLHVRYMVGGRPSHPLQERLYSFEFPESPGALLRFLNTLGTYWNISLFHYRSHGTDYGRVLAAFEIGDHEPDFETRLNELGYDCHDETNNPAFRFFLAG
Method: as §1
(§3) The effects of amino acid substitutions at Leu481 in ilvA were assessed by steady state kinetic analysis in the presence and absence of L-isoleucine. Threonine deaminase polypeptides for use in in vitro kinetics studies were extracted from E. coli cells in assay buffer containing 50 mM potassium phosphate (pH7.5), 1 mM dithiothreitol (DTT), and 0.5 mM ethylenediamine-tetraacetate. A continuous assay method was employed to monitor the formation of α-ketobutyrate directly at 230 nm (ε230 (pH7.5)=540 M^−1cm^−1 whereas threonine absorption was negligible (˜1%)). The assay was initiated by adding 20 μl of crude extract diluted 1:20 v/v to the assay vessel containing L-threonine (between 2.5 mM and 50 mM) in a final volume of 1 mL. For L-isoleucine inhibition, L-isoleucine was added between 0 mM and 20 mM. The kinetic parameters were determined by fitting the data points to the equations using GraFit 4.0 software (Erithacus Software, Surrey, UK). For comparison, the kcat values of L481 alleles were normalized to the kcat value for the wild type IlvA enzyme. Enzymes represented in FIG. 7 are: wild type E. coli threonine deaminase (circles), L481Y TD enzyme (diamonds), L481F TD enzyme (triangles), and the L481T TD enzyme (squares). Table 4 also summarizes the kinetic parameters of the variant threonine deaminase enzymes produced by the various E. coli ilvA alleles.

[4] = biological target: T4, E. coli threonine deaminase (ilvA) variant L481P, SEQ ID NO: 6 (Escherichia coli, UniProt P04968, A120R/A140R/G195C/G334V/L481P/V121L); test: Threonine deaminase steady state kinetics, L481P; type: biochemical
T4 construct: made in house; host or cells: E. coli (pSE380, crude extract)
Method: as §1, §2

[5] = biological target: T5, E. coli threonine deaminase (ilvA) variant L481F (ilvA466), SEQ ID NO: 4 (Escherichia coli, UniProt P04968, A120R/A140R/G195C/G334V/L481F/V121L); test: biochemical; type: biochemical
T5 construct: made in house; host or cells: E. coli (pSE380, crude extract)
Method: as §1, §2

[6] = biological target: T6, E. coli threonine deaminase (ilvA) variant L481Q, SEQ ID NO: 9 (Escherichia coli, UniProt P04968, A120R/A140R/G195C/G334V/L481Q/V121L); test: Threonine deaminase steady state kinetics, L481Q; type: biochemical
T6 construct: made in house; host or cells: E. coli (pSE380, crude extract)
T6 sequence (P04968 1-514 A120R/V121L/A140R/G195C/G334V/L481Q): T3 sequence (P04968 1-514 A120R/V121L/A140R/G195C/G334V/L481I) with I481Q
Method: as §1, §3

[7] = biological target: Arabidopsis threonine deaminase, wild type; settings: wild type Arabidopsis TD, comparison data, cited from earlier work
[8] = biological target: Arabidopsis threonine deaminase, mutant OMR1 (polynucleotide SEQ ID NO: 22); settings: mutant Arabidopsis (OMR1) TD, comparison data, cited from earlier work
[9] = biological target: T7, E. coli threonine deaminase (ilvA) variant L481T, SEQ ID NO: 8 (Escherichia coli, UniProt P04968, A120R/A140R/G195C/G334V/L481T/V121L); test: Threonine deaminase steady state kinetics, L481T; type: biochemical
T7 construct: made in house; host or cells: E. coli (pSE380, crude extract)
Method: as §1, §2

T1 sequence (P04968 whole entry A120R/V121L/A140R/G195C/G334V): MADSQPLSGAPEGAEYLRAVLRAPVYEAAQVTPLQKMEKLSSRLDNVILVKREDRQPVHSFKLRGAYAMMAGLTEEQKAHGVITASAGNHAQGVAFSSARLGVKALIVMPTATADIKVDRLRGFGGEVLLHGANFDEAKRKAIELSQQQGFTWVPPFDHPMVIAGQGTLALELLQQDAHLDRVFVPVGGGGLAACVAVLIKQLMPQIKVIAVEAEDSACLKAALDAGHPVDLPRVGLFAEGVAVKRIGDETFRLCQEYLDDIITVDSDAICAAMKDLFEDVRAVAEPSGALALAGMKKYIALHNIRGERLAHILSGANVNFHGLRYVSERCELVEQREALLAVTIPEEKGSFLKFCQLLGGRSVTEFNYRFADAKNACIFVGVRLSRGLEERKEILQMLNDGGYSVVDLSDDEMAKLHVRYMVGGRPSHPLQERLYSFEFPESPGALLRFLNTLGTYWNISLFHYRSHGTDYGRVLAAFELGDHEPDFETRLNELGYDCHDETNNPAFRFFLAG
T5 sequence (P04968 whole entry A120R/V121L/A140R/G195C/G334V/L481F): as the sequence (P04968 whole entry A120R/V121L/A140R/G195C/G334V) above, with L481F counted along it
T2 sequence (P04968 whole entry A120R/V121L/A140R/G195C/G334V/L481E): as the sequence (P04968 whole entry A120R/V121L/A140R/G195C/G334V) above, with L481E counted along it
T4 sequence (P04968 whole entry A120R/V121L/A140R/G195C/G334V/L481P): as the sequence (P04968 whole entry A120R/V121L/A140R/G195C/G334V) above, with L481P counted along it
T7 sequence (P04968 whole entry A120R/V121L/A140R/G195C/G334V/L481T): as the sequence (P04968 whole entry A120R/V121L/A140R/G195C/G334V) above, with L481T counted along it

| Compound | IC50 [1] | IC50 [2] | IC50 [3] | IC50 [4] | IC50 [5] | IC50 [6] | IC50 [7] | IC50 [8] | IC50 [9] | Km ([1]; read-out: Km^Thr, E. coli wt, pMON25858, pH 7.5, L-threonine 2.5-50 mM) | Km ([2]; read-out: Km^Thr, L481E, pMON25860, pH 7.5, L-threonine 2.5-50 mM) | Hill coefficient (n), substrate binding ([3]; L481I, pMON25861, positive cooperativity) | Km ([3]; read-out: Km^Thr, L481I, pMON25861, pH 7.5, L-threonine 2.5-50 mM) | Km ([4]; read-out: Km^Thr, L481P, pMON25864, pH 7.5, L-threonine 2.5-50 mM) | Km ([5]; read-out: Km^Thr, L481F, pMON25857, pH 7.5, L-threonine 2.5-50 mM) | Hill coefficient (n), substrate binding ([6]; L481Q, pMON25865, positive cooperativity) | Km ([6]; read-out: Km^Thr, L481Q, pMON25865, pH 7.5, L-threonine 2.5-50 mM) | Km ([7]; read-out: Km^Thr) | Km ([8]; read-out: Km^Thr) | Km ([9]; read-out: Km^Thr, L481T, pMON25866, pH 7.5, L-threonine 2.5-50 mM) |
| --- | --- | --- | --- | --- | --- | --- | --- | --- | --- | --- | --- | --- | --- | --- | --- | --- | --- | --- | --- | --- |
| CC[C@H](C)[C@H](N)C(=O)O [L-isoleucine] | 56 µM | 445 µM | 134 µM | 650 µM | 800 µM | 188 µM | 10 µM | 500 µM | 449 µM |  |  |  |  |  |  |  |  |  |  |  |
| C[C@@H](O)[C@H](N)C(=O)O [L-threonine] |  |  |  |  |  |  |  |  |  | 8.3 mM | 3.9 mM | 1.6 | 7.6 mM | 8.8 mM | 4 mM | 1.6 | 8.8 mM | 2.8 mM | 3.6 mM | 3.4 mM |
